Reference: article PMC8092876, “A Leucyl-tRNA Synthetase Inhibitor with Broad-Spectrum Antimycobacterial Activity” (Antimicrobial Agents and Chemotherapy, 2021)

Tested on: M. abscessus Bamboo
Type: cell-based
Conditions: M. abscessus versus M. tuberculosis

Compound: CC(C)(O)COc1ccc(Br)c2c1B(O)O[C@@H]2CN [EC/11770]
- frequency of resistance lower than for other benzoxaboroles in M. tuberculosis: 100 fold
